Measured values from patent publication US9944721B2, “Polysialic acid and use for treatment of neurodegenerative and neuroinflammatory diseases” (RHEINISCHE FRIEDRICH-WILHELMS UNIVERSITÄT BONN, priority 2013, dated 2018).

Tests used:
Type in all cases: cell-based
[1] = test system: human microglial cells; experiment: Phagocytosis associated oxidative burst: neural debris triggered superoxide release (DHE); details: control experiment; 40 μM Trolox or 20 μg/ml SOD1
Description: To measure the relative production of superoxide by the microglial cells, human microglial cells were plated in 4-chamber culture dishes. After 24 hours cells were treated with 5 mg/ml neural debris for 15 minutes with or without 1 hour PSA-20 pre-incubation at concentrations of 0.15 μM, 0.5 μM or 1.5 μM. Then, cells were washed 2-times with Krebs-HEPES-buffer. To detect the release of superoxide the cells were afterwards incubated for 15 minutes with 30 μM superoxide-sensitive fluorescent dye dihydroethidium (DHE) solution diluted in Krebs-HEPES-buffer. Finally cells were washed 2-times with Krebs-HEPES-buffer and fixed for 15 minutes with 0.25% glutaraldehyde and 4% PFA. In total, six images were randomly collected per experimental group by confocal laser scanning microscopy (Fluoview 1000, Olympus). All cells of the collected images were analyzed by Image J software (NIH).
To confirm the effect, Trolox as scavenger of superoxide and superoxide dismutase-1 (SOD1) as modifier of superoxide were used in a control experiment as described above using 1.5 μM of PSA-20 but adding either 40 μM Trolox or 20 μg/ml (SOD1) into the medium. […] As can be taken from the FIG. 9C, the radical scavenger Trolox and the superoxide dismutase SOD1 neutralized the neural debris triggered superoxide release and as controls confirmed that DHE detected an extracellular production of superoxide.

[2] = test system: human microglial cells stimulated with fibrillary amyloid-β1-42; experiment: Amyloid-β1-42 induced superoxide release of human microglia (DHE); details: repeat, FIG. 4B; PSA-20 1.5 μM; Trolox 40 μM; SOD1 20 μg/ml; Aβ 10 μM
Description: The human microglial cell line was treated with human Alzheimer's disease associated fibrillary amyloid-beta peptide (Aβ) to mimic inflammatory signalling of Alzheimer's disease brain tissue. To obtain fibrillary components of Aβ, the synthetic amyloid-beta peptide (amyloid-beta 1-42, Bachem/Brucker, 10 μM) was preincubated at 37° C. for at least three days. The human microglial cells were treated with the different concentrations of 0.15 μM, 0.5 μM, or 1.5 μM of low molecular weight polysialic acid (PSA-20) for 60 minutes followed by incubation for 15 minutes with fibrillary Aβ. Then, 30 μM dihydroethidium (DHE) was added and incubated at 37° C. for 15 minutes for measurement of superoxide anion radical production. Cells were fixed with 4% paraformaldehyde plus 0.25% glutaraldehyde and analyzed by confocal microscopy. For the quantification of DHE staining intensity six pictures of each experiment were obtained and analyzed by ImageJ software (NIH). The background was subtracted and the mean values of the staining intensities were compared. Cells were fixed and the intensity of DHE was quantified by confocal microscopy.
To confirm the specificity of the DHE measurement, the determination of the effect of PSA-20 on superoxide production in human microglial cells was repeated. As a control the radical scavenger Trolox, a water-soluble vitamin E analogue, was added to the system. Furthermore, as additional control superoxide dismutase-1 (SOD1) was added into the medium. Superoxide should no longer be detectable by the DHE dye after successful transformation of superoxide by SOD1.
Human microglial cells were cultured alone and production of reactive oxygen species was analyzed after treatment with the Alzheimer's disease plaques associated fibrillary amyloid-β1-42. To measure the relative production of superoxide by the microglial cells, cells were plated in 4-chamber culture dishes. After 24 hours human microglial cells were treated with 1.5 μM of low molecular weight polysialic acid (PSA-20) for 60 minutes followed by incubation for 15 minutes with 10 μM fibrillary amyloid-β1-42. Control dishes were treated with either 1.5 μM PSA-20 and 40 μM Trolox or 1.5 μM PSA-20 and 20 μg/ml superoxide dismutase-1 (SOD1, Serva). Then, cells were washed 2-times with Krebs-HEPES-buffer and afterwards incubated for 15 minutes with 30 μM DHE solution (diluted in Krebs-HEPES-buffer). Finally cells were washed 2-times with Krebs-HEPES-buffer and fixed for 15 minutes with 0.25% glutaraldehyde and 4% PFA. In total, six images were randomly collected per experimental group by confocal laser scanning microscopy (Fluoview 1000, Olympus). All cells of the collected images were analyzed by Image J software (NIH).

[3] = test system: LPS-activated human microglia; experiment: LPS-induced TNF-alpha gene transcription in human microglia (qRT-PCR); details: LPS 1 μg/ml, 24 hours; for LPS-induced gene transcription of TNF-alpha: 0.15 μM, 0.5 μM and 1.5 μM, FIG. 3; for Anti-inflammatory effect on TNF-alpha of LPS-activated human microglia: summary of Example 4
Description: To analyse whether polysialic acid might interfere with a pro-inflammatory phenotype of human microglia, cultured human microglia were activated with lipopolysaccharides (LPS) and the effect of the distinct sialic acid forms including fractions of oligosialic and polysialic acid on the gene transcription of the pro-inflammatory cytokine tumor necrosis factor-alpha induced by the bacterial toxin LPS was determined. A human microglial line derived from induced pluripotent stem cells as described in WO 2010/125110 was used to study the effect of sialic acid forms with different chain length. Human microglial cells were cultured on 5 μg/ml poly-L-lysin (PLL, Sigma)-coated dishes in N2-medium containing DMEM/F12 culture medium (Gibco) supplemented with 1% N2 (Invitrogen), 0.48 mM L-glutamine (Gibco) and optionally 100 μg/ml penicillin/streptomycin (Gibco). Cells were cultured with high density and splitted 1:2 when required. The human induced pluripotent stem cell derived microglia line was treated with lipopolysaccharides (LPS, 1 μg/ml, Invivogen) and sialic acid forms with different chain length for 24 hours. Gene transcripts for tumor necrosis factor-α (TNF-alpha) were determined by quantitative RT-PCR and normalized to GAPDH. In detail, RNA isolation was performed using RNeasy Mini Kit (Qiagen) and transcription with the SuperScript First-Strand Synthesis System (Invitrogen). Quantitative RT-PCR with specific oligonucleotides (GAPDH: […] (SEQ ID NO: 1) and […] (SEQ ID NO: 2); TNFα: […] (SEQ ID NO: 3) and […] (SEQ ID NO: 4)) was performed using SYBR green PCR Master Mix with the Mastercycler epgradients S (Eppendorf). Results were normalized to GAPDH. Quantification using the delta-CT method was carried out.

[4] = test system: human microglial line derived from induced pluripotent stem cells (expressing Siglec-11); experiment: MTT cell viability of human microglia treated with sialic acid forms; details: for metabolic activity of the microglial cells (MTT, normalized to cell number): 24 hours treatment, 0.15 μM, 0.5 μM and 1.5 μM, FIG. 2B; for Intact viability of human microglia: summary of Example 3, MTT, 24 hours
Description: A human microglial line derived from induced pluripotent stem cells as described in WO 2010/125110 was used to study the effect of sialic acid forms with different chain length. Human microglial cells were cultured on 5 μg/ml poly-L-lysin (PLL, Sigma)-coated dishes in N2-medium containing DMEM/F12 culture medium (Gibco) supplemented with 1% N2 (Invitrogen), 0.48 mM L-glutamine (Gibco) and optionally 100 μg/ml penicillin/streptomycin (Gibco). Cells were cultured with high density and splitted 1:2 when required.
The effect of different length and fractions of oligosialic acids and polysialic acids on the human microglial lines were analyzed by determination of cell viability normalized to the cell number and after treatment with monomeric sialic acid (SA, molecular weight of 0.3 kDa, Nacalai Tesque ING, Japan) and sialic acids consisting of 3 monomers (Tri-SA; molecular weight of 0.9 kDa, Nacalai Tesque ING, Japan) and sialic acids consisting of 6 monomers (Hexa-SA; molecular weight of 1.9 kDa, Nacalai Tesque ING, Japan), PSA with a number of sialic acid monomers between 14 and 26 (PSA-20; low molecular weight of PSA between 4.3 and 8 kDa for >90% of the substance) and PSA with a length between 46 and 110 of sialic acid monomers (PSA-60; medium molecular weight of PSA between 14.2 and 34 kDa for >90% of the substance).
The microglial cells were cultured in medium as described above and treated in culture with the different sialic acid forms.
Cell viability was determined by the MTT (3-(4,5-Dimethylthiazol-2-yl)-2,5-diphenyltetrazolium bromide, Millipore) assay after 24 hours treatment with distinct sialic acid forms with different chain length and normalized to the cell number. The light absorbance of the purple formazan in living cells was determined by a spectrophotometer at a wavelength of 570 nm (Perkin Elmer, Envision Multiplate Reader).

Compound | neural debris triggered superoxide release [1] | amyloid-β1-42 induced stimulation of the superoxide production [2] | LPS-induced gene transcription of TNF-alpha [3] | Anti-inflammatory effect on TNF-alpha of LPS-activated human microglia [3] | metabolic activity of the microglial cells (MTT, normalized to cell number) [4] | Intact viability of human microglia [4]
Cc1c(C)c2c(c(C)c1O)CCC(C)(C(=O)O)O2 (stereo not drawn) [Trolox, 6-hydroxy-2,5,7,8-tetramethylchroman-2-carboxylic acid, reference compound] | neutralized | scavenged | – | – | – | –
SOD1: superoxide dismutase-1 (Serva), added to the medium as a control | neutralized | neutralized | – | – | – | –
α2.8-polysialic acid [PSA-180] | – | – | no significant anti-inflammatory effect | No | significantly reduced | No
CC(=O)N[C@H]1[C@H]([C@H](O)[C@H](O)CO)OC(O)(C(=O)O)C[C@@H]1O (stereo partly drawn) [SA, N-acetylneuraminic acid] | – | – | did not significantly change | No | did not affect the metabolic activity | Yes
